Reference: paper PMC12115197, “Neuroprotective Potential of Tetraselmis chuii Compounds: Insights into Blood–Brain Barrier Permeability and Intestinal Transport” (Pharmaceuticals, 2025)
Where “and” joins values, the source holds several entries; their conditions need not be identical. Equal entries are not always repeated. Entries after “also recorded” stand apart in the source; their conditions may differ. Marks after values point to notes of the source that are not given here.

Columns and labels:
HBMEC cells = test: Blood-brain barrier transport study (Transwell, UHPLC-q-TOF-MS); assay type: in vitro ADME, human; conditions: for Permeability / transport to the lower compartment in HBMEC cells, over the incubation times tested: OP-1 extract 40 µg mL−1, 2-24 h, time not specified (overall or maximum); for Te% ± SEM HBMEC Cells 4 h: OP-1 extract 40 µg mL−1, 4 h; for Te% ± SEM HBMEC Cells 4 h / Te% ± SEM HBMEC Cells 24 h / Te% ± SEM HBMEC Cells 2 h: Te = CLower/CUpper × 100; for Te% ± SEM HBMEC Cells 24 h: OP-1 extract 40 µg mL−1, 24 h; for Te% ± SEM HBMEC Cells 2 h: OP-1 extract 40 µg mL−1, 2 h
Description: The HBMEC cell line was used as a simplified in vitro model of the BBB endothelium. For this, cells were seeded at a density of 1.6 × 10^5 cells/cm^2 into 12-well Transwell® plates (0.4 μm pore, Corning Costar Corp., Corning, NY, USA) coated with rat tail collagen-I (100 μg mL^−1). Medium was changed every second day until a monolayer was formed (10 days), and the transport studies were initiated.
Medium containing 0.4% ethanol was used as the control group, and the lower chamber was filled with 1.5 mL of medium. The cells were incubated under these conditions for 2, 4, and 24 h. After incubation time, cell culture medium from both the upper and lower compartments was collected, dried using a freeze dryer (Martin Christ, Osterode am Harz, Germany), and stored at −80 °C until the chemical characterization was performed to assess the transport efficiency of the bioactive compounds.
(§1) The transport efficiency of bioactive compounds across the cell layer (Te) was calculated using the Equation (1) proposed by Pogačnik et al. (2016):Te = CLower/CUpper × 100%(1)
(§2) This calculation was performed to understand whether the compound crosses the cell layer and how efficiently it is transported. Here, CLower represents the relative concentration (peak area) of the compound in the lower compartment, and CUpper represents the relative concentration (peak area) of the compound in the upper compartment.
(§3) Obtained samples from the transport assays performed in HBMEC and Caco-2 cells were extracted to recover and concentrate the bioactive compounds in the upper and lower compartments and to prevent possible interferences of the cell culture medium in the analyses. Briefly, dried samples were resuspended in 0.5 mL of H2O and mixed with vortex for 10 s. Then, 0.5 mL of AcOEt was added, mixed with vortex for 10 s, and centrifuged at 14,000 rpm for 5 min. After centrifugation, the supernatant (AcOEt) was carefully transferred to a 1.5 mL Eppendorf tube and dried in a SpeedVac (SPD1030, Thermo Fisher Scientific) device at 40 °C and 13 mbar pressure. Finally, the dried extracts were resuspended in 25 μL of pure ethanol for their subsequent analysis.
(§4) The analysis of the obtained samples from HBMEC cells, Caco-2 cells, and PAMPA-BBB experiments was carried out using the same conditions and instrumentation as in our previous study. Briefly, 10 μL of each sample was injected into an Agilent 1290 UHPLC system equipped with a DAD detector and coupled to an Agilent 6540 q-TOF/MS equipped with an orthogonal atmospheric pressure chemical ionization (APCI) source, all from Agilent Technologies (Santa Clara, CA, USA). Carotenoids were separated using a Thermo Fisher Scientific Accucore C30 column (2.6 μm, 4.6 × 50 mm), applying a flow rate of 0.8 mL min^−1 at 30 °C. Methanol/MTBE/water (90:7:3%) and methanol/MTBE (10:90%) were used as mobile phases, and the chromatographic gradient started with 0%B, changing it to 100%B within 12 min. This was kept constant for 1.5 min before returning to the initial conditions.
(§5) The results were processed using the Agilent Mass Hunter Qualitative software (version B.10.0). A peak intensity threshold of 5000 (nearly 4 times the noise signal) in the upper compartments was applied to obtain reliable and accurate results, and a relative quantification was performed. Peaks below this threshold value were excluded from the analysis.

Caco-2 cells = test: Intestinal transepithelial transport study (Transwell, UHPLC-q-TOF-MS); assay type: in vitro ADME, human; conditions: for Permeability / transport to the lower compartment in Caco-2 cells, over the incubation times tested: OP-1 extract 40 µg mL−1, 2-24 h, time not specified (overall or maximum); for Te% ± SEM Caco-2 Cells 2 h: OP-1 extract 40 µg mL−1, 2 h; for Te% ± SEM Caco-2 Cells 2 h / Te% ± SEM Caco-2 Cells 4 h / Te% ± SEM Caco-2 Cells 24 h: Te = CLower/CUpper × 100; for Te% ± SEM Caco-2 Cells 4 h: OP-1 extract 40 µg mL−1, 4 h; for Te% ± SEM Caco-2 Cells 24 h: OP-1 extract 40 µg mL−1, 24 h
Description: as §1, §2
Caco-2 cells were grown according to the protocol described by Rojo-Poveda et al. (2020) to evaluate the intestinal permeability. Briefly, Caco-2 cells were seeded into inserts (0.4 μm pore, Corning Costar Corp., Corning, NY, USA) in 12-well plates. Then, 0.5 mL of complete DMEM culture medium containing approximately 300,000 cells was applied to the apical surface (AP) of each insert, and 1.5 mL of the same culture medium was added to the basolateral side (BL). Cells were allowed to grow for 21 days to differentiate and form a monolayer, changing the culture medium every 2–3 days.
The Caco-2 transport studies were performed using the same procedures as for HBMEC experiments (described in Section 4.5.2 and Section 4.5.3), but using DMEM as cell culture medium and recording TEER measurements.
as §3, §4, §5

[1] = Neuroprotection against L-glutamate-induced toxicity in SH-SY5Y cells (MTT); conditions: human
Description: Then, the viability was determined by the MTT assay as below. At the end of the 24 h incubation period, the medium was removed, and 0.5 mg mL^−1 MTT solution was added to each well. The cells were incubated at 37 °C for 3 h. At the end of the incubation, MTT was carefully removed, and formazan crystals in the wells were dissolved by adding 100 µL of DMSO. The absorbance of the solution was measured by a plate reader at 570 nm wavelength. Cell viability was calculated by comparing the absorbance values of treated cells with the control group (ethanol-treated cells). […] All the experiments were performed in triplicate.
In the control group, DMEM/F12 cell medium supplemented with 1% FBS, 100 U mL^−1 penicillin, 100 μg mL^−1 streptomycin, 250 ng mL^−1 antimycotic, and 0.4% ethanol was used. […] Cell viability was assessed by MTT assay at the end of the experiments. All the experiments were repeated three times.

[2] = system: differentiated SH-SY5Y cells; test: Neuroprotection against H2O2-induced toxicity in SH-SY5Y cells (MTT); assay type: cell-based, human; conditions: H2O2 65 µM, 24 h
Description: All the experiments were performed in triplicate.
All the experiments were repeated three times.

Row | Compound | Permeability / transport to the lower compartment in HBMEC cells, over the incubation times tested (HBMEC cells) | Te% ± SEM HBMEC Cells 24 h (HBMEC cells) | Permeability / transport to the lower compartment in Caco-2 cells, over the incubation times tested (Caco-2 cells) | other results
1 | CC1=C(C#C/C(C)=C/C=C/C(C)=C/C=C/C=C(C)/C=C/C=C(C)/C=C/C2=C(C)C[C@@H](O)CC2(C)C)C(C)(C)C[C@H](O)C1 [Diatoxanthin] | 8.1% | 8.1 ± 3.4 ^a % | 4.4% | Te% ± SEM HBMEC Cells 4 h (HBMEC cells): 1.1 ± 0.1 ^b %; Te% ± SEM HBMEC Cells 4 h (HBMEC cells; listed as diatoxanthin): 1.1%; Te% ± SEM HBMEC Cells 24 h (HBMEC cells; listed as diatoxanthin): 8.1%; Te% ± SEM Caco-2 Cells 2 h (Caco-2 cells): 1.4 ± 0.1 ^c %; Te% ± SEM Caco-2 Cells 2 h (Caco-2 cells; listed as diatoxanthin): 1.4%; Te% ± SEM Caco-2 Cells 4 h (Caco-2 cells): 2.3 ± 0.3 ^b %; Te% ± SEM Caco-2 Cells 24 h (Caco-2 cells): 4.4 ± 0.9 ^a %; Te% ± SEM Caco-2 Cells 24 h (Caco-2 cells; listed as diatoxanthin): 4.4%
2 | N[C@@H](CCC(=O)O)C(=O)O [L-glutamate] |  |  |  | viability at 24 h, 23 mM [1]: 47%
3 | hydrogen peroxide [H2O2] |  |  |  | Cell viability compared to control group, neurotoxic agent alone [2]: 48%
4 | CC1=C(C#C/C(C)=C/C=C/C(C)=C/C=C/C=C(C)/C=C/C=C(C)/C=C/C2=C(C)CCCC2(C)C)C(C)(C)C[C@H](O)C1 [Crocoxanthin] | ≈ 3% and 3% | 2.7 ± 0.6 ^a % | ≈ 12% and 12.1% | Te% ± SEM HBMEC Cells 2 h (HBMEC cells): 3.4 ± 3.2 ^a %; Te% ± SEM HBMEC Cells 4 h (HBMEC cells): 0.9 ± 0.3 ^b %; Te% ± SEM Caco-2 Cells 2 h (Caco-2 cells): 12.0 ± 9.5 ^a %; Te% ± SEM Caco-2 Cells 4 h (Caco-2 cells): 11.8 ± 5.6 ^a %; Te% ± SEM Caco-2 Cells 24 h (Caco-2 cells): 12.1 ± 1.5 ^a %
5 | CC1=CCCC(C)(C)C1/C=C/C(C)=C/C=C/C(C)=C/C=C/C=C(C)/C=C/C=C(C)/C=C/C1=C(C)CCCC1(C)C (stereo not drawn) [α-carotene] | could not be detected in the lower compartment |  | could not be detected in the lower compartment | 
6 | echinenone II | could not be detected in the lower compartment |  | could not be detected in the lower compartment | 
7 | C=C1C[C@@H](O)CC(C)(C)[C@]1(O)CC(=O)/C(C)=C/C=C/C(C)=C/C=C/C=C(C)/C=C/C=C(C)/C=C/[C@H]1C(C)=C[C@H](O)CC1(C)C [Prasinoxanthin] |  | 8.9 ± 2.3% | could not be detected; also recorded: could not pass through the intestinal epithelium | 
8 | C\C(C=C=C1C(C)(C)C[C@H](O)C[C@@]1(C)O)=C/C=C/C(C)=C/C=C/C=C(C)/C=C/C=C(\C)C(=O)C[C@@]12O[C@]1(C)C[C@@H](O)CC2(C)C [Fucoxanthinol] |  | 18.94% and 18.9 ± 2.3 ^a % |  | Te% ± SEM HBMEC Cells 2 h (HBMEC cells): 4.41% and 4.4 ± 1.1 ^c %; Te% ± SEM HBMEC Cells 2 h (HBMEC cells; listed as fucoxanthinol): 4.4%; Te% ± SEM HBMEC Cells 4 h (HBMEC cells): 5.13% and 5.1 ± 0.1 ^b %; Te% ± SEM Caco-2 Cells 2 h (Caco-2 cells): 7.01% and 7.0 ± 0.2 ^c %; Te% ± SEM Caco-2 Cells 2 h (Caco-2 cells; listed as fucoxanthinol): 7.0%; Te% ± SEM Caco-2 Cells 4 h (Caco-2 cells): 8.63% and 8.6 ± 2.2 ^b %; Te% ± SEM Caco-2 Cells 24 h (Caco-2 cells): 18.36% and 18.4 ± 7.2 ^a %
9 | echinenone I | could not be detected in the lower compartment |  | could not be detected in the lower compartment | 
10 | CC(/C=C/C=C(C)/C=C/[C@@]12O[C@]1(C)C[C@@H](O)CC2(C)C)=C\C=C\C=C(C)\C=C\C=C(C)\C=C\[C@@]12O[C@]1(C)C[C@@H](O)CC2(C)C [Violaxanthin] |  | 13.9 ± 6.0% | could not be detected; also recorded: could not pass through the intestinal epithelium | 
11 | CC1=C(/C=C/C(C)=C/C=C/C(C)=C/C=C/C=C(C)/C=C/C=C(C)/C=C/C2=C(C)CCCC2(C)C)C(C)(C)CCC1 [β-carotene] | could not be detected in the lower compartment |  | could not be detected in the lower compartment | 
12 | CC(=C/C=C/C(C)=C/C=C/C=C(C)/C=C/C=C(\C)C=C=C1C(C)(C)C[C@H](O)C[C@@]1(C)O)/C=C/[C@@]12O[C@]1(C)C[C@@H](O)CC2(C)C [Neoxanthin] | 13.2% | 13.2 ± 4.3 ^a % | ≈ 0.6% and 0.6% | Te% ± SEM HBMEC Cells 4 h (HBMEC cells): 1.4 ± 0.2 ^b %; Te% ± SEM HBMEC Cells 4 h (HBMEC cells; listed as neoxanthin): 1.4%; Te% ± SEM HBMEC Cells 24 h (HBMEC cells; listed as neoxanthin): 13.2%; Te% ± SEM Caco-2 Cells 2 h (Caco-2 cells): 0.5 ± 0.3 ^b %; Te% ± SEM Caco-2 Cells 4 h (Caco-2 cells): 0.4 ± 0.1 ^b %; Te% ± SEM Caco-2 Cells 24 h (Caco-2 cells): 0.6 ± 0.4 ^a %
13 | zeaxanthin/lutein | could not be detected in the lower compartment |  | could not be detected in the lower compartment | 
14 | CC1=C(C#C/C(C)=C/C=C/C(C)=C/C=C/C=C(C)/C=C/C=C(C)/C=C/[C@@]23O[C@]2(C)C[C@@H](O)CC3(C)C)C(C)(C)C[C@H](O)C1 [diadinoxanthin] | could not be detected in the lower compartment |  | could not be detected in the lower compartment | 
15 | CC1=C(/C=C/C(C)=C/C=C/C(C)=C/C=C/C=C(C)/C=C/C=C(C)/C=C/[C@@]23O[C@]2(C)C[C@@H](O)CC3(C)C)C(C)(C)C[C@H](O)C1 [antheraxanthin] | could not be detected in the lower compartment |  | could not be detected in the lower compartment | 
